Assay results as given in patent US11566017B2, “Dihydroquinazolinone compound or pharmacologically acceptable salt, and cell growth inhibitor” (RIKEN, priority 2017, dated 2023).

How the values were obtained:
[1] = target: T1, tankyrase 1 (TNKS1) (Homo sapiens, UniProt O95271); assay: Tankyrase inhibitory activity test (ELISA, auto-poly(ADP-ribosyl)ation), tankyrase 1; type: biochemical; conditions: Flag tagged tankyrase 1 (1,024-1,327aa, SAM+PARP); read-out: TNKS1 (inhibitory activity against tankyrase 1, IC50)
T1 construct: tankyrase 1 (1,024-1,327aa, SAM+PARP); made in house; host or cells: cell-free protein expression system
Protocol: (§1) The enzymatic activity of tankyrase 1 and the enzymatic activity of tankyrase 2 were measured by the ELISA method based on assessment of auto-poly(ADP-ribosyl)ation to evaluate the tankyrase inhibitory activity of the compound prepared in each of Examples (test compound) (inhibitory activity against tankyrase 1 (TNKS1) and inhibitory activity against tankyrase 2 (TNKS2)). First, Flag tagged tankyrase 1 (1,024-1,327aa, SAM+PARP) and tankyrase 2 (613-1,116aa, ANK5+SAM+PARP) were synthesized with a cell-free protein expression system, and diluted with a Tris buffer solution (50 mM Tris-HCl (pH 8.0), 150 mM NaCl, 10% glycerol). 50 μL of the diluted tankyrase 1 or tankyrase 2 was added to a plate with an anti-FLAG M2 monoclonal antibody immobilized thereon (Anti-FLAG High-Sensitivity M2-Coated Plate) (Sigma-Aldrich), and the plate was left standing overnight at 4° C. Thereafter, the plate was washed four times with a PBS (PBST) buffer containing 0.1% Triton X-100. For Example 84, the Anti-FLAG High-Sensitivity M2-Coated Plate was replaced by an immunoplate (Thermo Fisher Scientific), tankyrase 1 or tankyrase 2 was immobilized on the immunoplate, and the immunoplate was then blocked with Blocking One (nacalai tesque), then washed with a PBS (PBST) buffer, and used as the following plate.
(§2) Subsequently, the test compound diluted with an assay buffer (50 mM Tris-HCl (pH 8.0), 4 mM MgCl2, 0.2 mM DTT) (DMSO was used as a control) was added to each well of the plate, and the plate was left standing at room temperature for 10 minutes. Thereafter, a biotin-labeled NAD solution (225 μM NAD, 25 μM 6-Biotin-17-NAD (Travigen, Inc.)) was added and mixed as a donor substrate, and the mixture was reacted at 30° C. for 45 minutes. To blank wells was added distilled water instead of the biotin-labeled NAD solution. After the reaction, the plate was washed with a PBST buffer four times. Thereafter, HRP (horseradish peroxidase)-labeled streptavidin (Travigen, Inc.) was diluted with a PBS buffer by 1,000 times, and added to each well, and the mixture was reacted at room temperature for 20 minutes. The plate was washed with a PBST buffer four times, a chemiluminescent substrate solution TACS-Sapphire (Travigen, Inc.) was then added to each well, the mixture was reacted at room temperature for 20 minutes, and the chemiluminescence intensity was measured using a chemiluminescence measuring apparatus. For Example 84, the streptavidin was diluted by 5,000 times, the chemiluminescent substrate solution TACS-Sapphire was replaced by an ELISA POD substrate TMB solution easy (nacalai tesque), the mixture was reacted at room temperature for 30 minutes, and the chemiluminescence intensity was measured using a chemiluminescence measuring apparatus.
(§3) The residual enzymatic activity in the presence of the test compound was determined from the following expression. On the basis of the residual enzymatic activity at each of multiple concentrations of the test compound, the enzyme inhibitory activity was calculated in terms of a 50%-inhibition concentration (IC50 value) using data analysis software Origin (LightStone Corp.). Residual activity (%)={(chemiluminescence intensity with test compound added)−(chemiluminescence intensity of blank)}/{(chemiluminescence intensity of control)−(chemiluminescence intensity of blank)}

[2] = target: T2, tankyrase 2 (TNKS2) (Homo sapiens, UniProt Q9H2K2); assay: Tankyrase inhibitory activity test (ELISA, auto-poly(ADP-ribosyl)ation), tankyrase 2; type: biochemical; conditions: Flag tagged tankyrase 2 (613-1,116aa, ANK5+SAM+PARP); read-out: TNKS2 (inhibitory activity against tankyrase 2, IC50)
T2 construct: tankyrase 2 (613-1,116aa, ANK5+SAM+PARP); made in house; host or cells: cell-free protein expression system
Protocol: as §1, §2, §3

[3] = test system: human colorectal cancer cell line COLO-320DM; assay: Cell proliferation inhibitory activity test (Celltiter-Glo); type: cell-based; conditions: COLO-320DM cells, 96 hours
Protocol: The cell proliferation inhibitory activity of the compound, which had been prepared in each of Examples, against the human colorectal cancer cell line COLO-320DM was evaluated by Celltiter-Glo Luminescent Cell Viability Assay (Promega Corporation; G7573). COLO-320DM cells were cultured in RPMI-1640 medium containing 2 mM glutamine (Wako Pure Chemical Industries, Ltd; 189-02025) supplemented with 10% fetal bovine serum. The cultured cells were washed with PBS, and then dissociated with trypsin/EDTA, and a cell solution with 3×10^4 cells/mL was prepared.
Subsequently, the cell solution was seeded in a 96-well microplate (Thermo/Nunc Company; 136101) in an amount of 70 μL per well, and cultured overnight under the condition of 37° C. and 5% CO2. Next day, a test compound solution obtained by diluting the test compound (DMSO solution) with a cell culture medium (final concentration of DMSO was 1%) was added in an amount of 10 μL per well, and the mixture was reacted under the condition of 37° C. and 5% CO2 for 96 hours (a 1% DMSO solution was used as a control). Thereafter, a Celltiter-GloLuminescent Cell Viability Assay reagent (Promega Corporation; G7573) was added in an amount of 80 μL per well, the mixture was stirred with a shaker for 2 minutes while light was blocked with an aluminum foil, and the mixture was incubated at room temperature for 10 minutes.
Thereafter, a luminescence signal was measured with a luminometer (Biotech Company; Synergy). The ratio of cell proliferation in each compound addition group to cell proliferation in a control group containing no test compound solution, where cell proliferation in the control group is 100%, was calculated and the value of a compound concentration necessary for suppressing the amount of residual cells to 50% of that in the control (GI50) was calculated as the cytostatic activity. […] An unevaluated test compound was designated as “NT”.

T1 sequence (O95271 1024-1327): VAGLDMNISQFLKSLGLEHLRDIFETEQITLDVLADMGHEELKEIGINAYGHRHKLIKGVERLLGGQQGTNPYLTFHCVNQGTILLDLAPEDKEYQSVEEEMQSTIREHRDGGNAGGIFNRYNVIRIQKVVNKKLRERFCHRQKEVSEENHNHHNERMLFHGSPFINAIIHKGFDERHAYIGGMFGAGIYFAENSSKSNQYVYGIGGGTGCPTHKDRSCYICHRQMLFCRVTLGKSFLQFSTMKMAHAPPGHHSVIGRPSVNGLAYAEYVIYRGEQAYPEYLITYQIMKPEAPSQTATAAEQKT

Compound	IC50 [1] [nM]	IC50 [2] [nM]	GI50 [3] [nM]
CN1CCN(c2ccc(-c3ccc(-c4n[nH]cc4C4NC(=O)c5ccccc5N4C)cc3)cc2)CC1 (stereo not drawn) [Example 6, 1-Methyl-2-[5-[4-[4-(4-methylpiperazin-1-yl)phenyl]phenyl]-1H-pirazol-4-yl]-2,3-dihydroquinazolin-4-one]	20 to 50	5 to 20	1000 to 10000
CCN1c2ccccc2C(=O)NC1c1c[nH]nc1-c1ccc(OC)cc1 (stereo not drawn) [Example 12, 1-Ethyl-2-[3-(4-methoxyphenyl)-1H-pyrazol-4-yl]-2,3-dihydroquinazolin-4-one]	20 to 50	5 to 20	1000 to 10000
CCc1cccc2c1NC(c1c[nH]nc1-c1ccc(OC)cc1)NC2=O (stereo not drawn) [Example 57, 8-Ethyl-2-[3-(4-methoxyphenyl)-1H-pyrazol-4-yl]-2,3-dihydro-1H-quinazolin-4-one]	5 to 20	< 5	1000 to 10000
CN1c2ccccc2C(=O)NC1c1c[nH]nc1-c1cccc(Br)c1 (stereo not drawn) [Example 20, 2-[3-(3-Bromophenyl)-1H-pyrazol-4-yl]-1-methyl-2,3-dihydroquinazolin-4-one]	20 to 50	5 to 20	≥ 10000
CCOc1ccc(-c2n[nH]nc2C2NC(=O)c3ccccc3N2C)cc1 (stereo not drawn) [Example 63, 2-[5-(4-Ethoxyphenyl)-2H-1,2,3-triazol-4-yl]-1-methyl-2,3-dihydroquinazolin-4-one]	5 to 20	5 to 20	1000 to 10000
COc1ccc(-c2n[nH]cc2C2NC(=O)c3cccc4c3N2CC4)cc1 (stereo not drawn) [Example 52, 11-[5-(4-Methoxyphenyl)-1H-pyrazol-4-yl]-1,10-diazatricyclo[6.3.1.0^4,12]dodeca-4(12),5,7-trien-9-one]	< 5	5 to 20	≥ 10000
COc1ccc(-c2n[nH]nc2C2NC(=O)c3ccccc3N2C)cc1 (stereo not drawn) [Example 58, 2-[5-(4-Methoxyphenyl)-2H-1,2,3-triazol-4-yl]-1-methyl-2,3-dihydroquinazolin-4-one]	5 to 20	< 5	1000 to 10000
CCOC(=O)Cc1ccc(-c2cccc(-c3n[nH]cc3C3NC(=O)c4ccccc4N3C)c2)cc1 (stereo not drawn) [Example 37, Ethyl 2-[4-[3-[4-(1-methyl-4-oxo-2,3-dihydroquinazolin-2-yl)-1H-pyrazol-5-yl]phenyl]phenyl]acetate]	20 to 50	20 to 50	≥ 10000
CCCOc1ccc(-c2n[nH]nc2C2NC(=O)c3cccc(C)c3N2)cc1 (stereo not drawn) [Example 74, 8-Methyl-2-[5-(4-propoxyphenyl)-2H-1,2,3-triazol-4-yl]-2,3-dihydro-1H-quinazolin-4-one]	5 to 20	5 to 20	1000 to 10000
CN1CCN(c2ccc(-c3ccc(-c4n[nH]cc4C4NC(=O)c5ccccc5N4C)cc3F)cc2)CC1 (stereo not drawn) [Example 44, 2-[5-[3-Fluoro-4-[4-(4-methylpiperazin-1-yl)phenyl]phenyl]-1H-pyrazol-4-yl]-1-methyl-2,3-dihydroquinazolin-4-one]	5 to 20	5 to 20	1000 to 10000

Further lines, results first:

IC50 [1] [nM]	IC50 [2] [nM]	GI50 [3] [nM]	Compound
< 5	< 5	1000 to 10000	COc1ccc(-c2c[nH]nc2C2NC(=O)c3ccccc3N2C)cc1 (stereo not drawn) [Example 86, 2-[4-(4-Methoxyphenyl)-1H-pyrazol-3-yl]-1-methyl-2,3-dihydro-1H-quinazolin-4-one]
20 to 50	< 5	≥ 10000	CN1c2ccccc2C(=O)NC1c1c[nH]nc1-c1ccc(-c2ccccc2)cc1 (stereo not drawn) [Example 17, 1-Methyl-2-[3-(4-phenylphenyl)-1H-pyrazol-4-yl]-2,3-dihydroquinazolin-4-one]
< 5	< 5	≥ 10000	CN1c2ccccc2C(=O)NC1c1c[nH]nc1-c1ccc(Br)c(F)c1 (stereo not drawn) [Example 43, 2-[3-(4-Bromo-3-fluorophenyl)-1H-pyrazol-4-yl]-1-methyl-2,3-dihydroquinazolin-4-one]
5 to 20	5 to 20	≥ 10000	CCOC(=O)COc1ccc(-c2n[nH]nc2C2NC(=O)c3cccc(C)c3N2)cc1 (stereo not drawn) [Example 79]
20 to 50	20 to 50	≥ 10000	CN1CCN(Cc2cccc(-c3cccc(-c4n[nH]cc4C4NC(=O)c5ccccc5N4C)c3)c2)CC1 (stereo not drawn) [Example 33]
5 to 20	20 to 50	≥ 10000	COc1cccc(-c2n[nH]cc2C2NC(=O)c3ccccc3N2C)c1 (stereo not drawn) [Example 15, 2-[5-(3-Methoxyphenyl)-1H-pyrazol-4-yl]-1-methyl-2,3-dihydroquinazolin-4-one]
5 to 20	< 5	≥ 10000	CN1c2ccccc2C(=O)NC1c1c[nH]nc1-c1ccc(NC(=O)c2ccccc2)cc1 (stereo not drawn) [Example 4, N-[4-[4-(1-Methyl-4-oxo-2,3-dihydroquinazolin-2-yl)-1H-pirazol-3-yl]phenyl]benzamide]
20 to 50	20 to 50	≥ 10000	Cc1cccc2c1NC(c1n[nH]nc1-c1ccc(OC(F)F)cc1)NC2=O (stereo not drawn) [Example 73, 2-[4-[4-(Difluoromethoxy)phenyl]-2H-1,2,3-triazol-5-yl]-8-methyl-2,3-dihydro-1H-quinazolin-4-one]
20 to 50	5 to 20	≥ 10000	CN1c2ccccc2C(=O)NC1c1c[nH]nc1-c1ccc(F)cc1 (stereo not drawn) [Example 21, 2-[3-(4-Fluorophenyl)-1H-pyrazol-4-yl]-1-methyl-2,3-dihydroquinazolin-4-one]
20 to 50	20 to 50	1000 to 10000	CN1CCN(c2ccc(-c3cccc(-c4n[nH]cc4C4NC(=O)c5ccccc5N4C)c3)cc2)CC1 (stereo not drawn) [Example 23, 1-Methyl-2-[5-[3-[4-(4-methylpiperazin-1-yl)phenyl]phenyl]-1H-pyrazol-4-yl]-2,3-dihydroquinazolin-4-one]
5 to 20	5 to 20	≥ 10000	CN1c2ccccc2C(=O)NC1c1n[nH]nc1-c1cccc(-c2ccc(N3CCOCC3)cc2)c1 (stereo not drawn) [Example 62, 1-Methyl-2-[4-[3-(4-morpholin-4-ylphenyl)phenyl]-2H-1,2,3-triazol-5-yl]-2,3-dihydroquinazolin-4-one]
5 to 20	< 5	1000 to 10000	Cc1cccc2c1NC(c1n[nH]nc1-c1ccc(OCC(F)F)cc1)NC2=O (stereo not drawn) [Example 78, 2-[4-[4-(2,2-Difluoroethoxy)phenyl]-2H-1,2,3-triazol-5-yl]-8-methyl-2,3-dihydro-1H-quinazolin-4-one]
